Source: patent US7611721B1, “Adjuvant combination formulations” (priority 2000, dated 2009)
Read-outs that look alike come from different tables or passages of the source.

Assays:
T1SP10MN(A) (−Cys) [1] = system: T1SP10MN(A) (−Cys)
Protocol: Mice were immunized subcutaneously in the rump, in a total volume of 0.2 ml equally divided on each side of the tail. Immunizations were administered at varying time intervals, as indicated below. Antigen and cytokines were diluted in phosphate buffered saline to the appropriate concentrations and formulated with adjuvants less than 16 hours prior to immunization, under sterile conditions. Vaccines were mixed by gentle agitation, and stored at 4° C. Formulations were mixed by vortex immediately prior to immunization.
Animals were bled prior to initial immunization, and at indicated time points. Serum was analyzed from individual mice, or as pools from mice within groups.
For analysis of HIV peptide-specific antibody and subclass distribution, peptide was suspended in either carbonate buffer (15 mM Na2CO3, 35 mM NaHCO3, pH 9.6), or PBS, at a concentration of 1 μg/ml and plated to 96 well microtiter plates (Nunc) in a volume of 100:1. After overnight incubation at 37° C., plates were washed, and blocked (0.1% gelatin/PBS) at room temperature for 2-4 hours. ELISA plates were washed with wash buffer (PBS, 0.1% Tween™20) before addition of serially diluted serum (PBS, 0.1% gelatin, 0.05% Tween™20, 0.02% sodium azide). After a four hour incubation, wells were washed and appropriate dilutions of biotinylated anti-isotype/subclass antibodies were added for incubation at 4° C. overnight. Wells were washed and incubated with strepavidin-conjugated horseradish peroxidase. After incubation, wells were washed, and developed with ABTS. Wells were read at 405 nm. Titers were standardized using control sera.
Reciprocal anti-HIV peptide-specific IgG endpoint titers were measured from pooled serum (n=5 Balb/c) at the indicated time points after initial immunization. Mice were immunized subcutaneously in the rump with 25 μg of T1SP10MN(A) (−Cys), unless otherwise indicated, on day 0, and on day 27. For recipients of Freund's adjuvants, mice were primed with peptide emulsified in CFA, and boosted with IFA. MPL™ SE was provided as an emulsion containing 2% squalene oil and 50 μg MPL™ per dose. SE is an oil-in-water emulsion vehicle consisting of squalene, glycerol, and an emulsifying agent. Recombinant murine IL-12 was delivered at 50 ng/mouse. Recombinant murine GM-CSF was delivered at 10 μg/mouse.
Reciprocal endpoint IgG subclass titers were measured from pooled serum (n=5 Balb/c) six weeks after initial immunization, two weeks after secondary immunization. Mice were immunized subcutaneously in the rump with 25 μg of peptide, unless otherwise indicated. For recipients of Freund's adjuvants, mice were primed with peptide emulsified in complete Freund's adjuvant, and boosted with incomplete Freund's adjuvant on weeks four and six. MPL™ SE was provided as an emulsion containing 2% squalene oil and 50 μg MPL™ per dose. SE is an oil-in-water emulsion vehicle consisting of squalene, glycerol, and an emulsifying agent. Recombinant murine IL-12 was delivered at 50 ng/mouse. Recombinant murine GM-CSF was delivered at 10 μg/mouse.
Mice were immunized subcutaneously in the rump, in a total volume of 0.2 ml equally divided on each side of the tail. Immunizations were administered on days 0 and 21 with 25 μg of the HIV peptide, together with the indicated amount of adjuvant(s).
Reciprocal anti-peptide IgG endpoint titers were measured from either geometric means from individual mice (GMT) or from pooled serum (n=5 Balb/c), obtained 14 days after the second immunization. IgG1 and IgG2a subclass endpoint titers were also measured from pooled serum.

spleen cells [2] = assay: Secretion of interferon-gamma by spleen cells (ELISA); assay type: cell-based, Balb/c mice; settings: Experiment 2, 96 hours culture, after subtraction of lysozyme value
Protocol: (§1) For proliferation assays and in vitro cytokine analysis, spleen cells were obtained from mice at the indicated time points. Single cell suspensions were prepared from pools of 3-5 mice as indicated in Results. For proliferation and cytokine analysis, cells were suspended in round bottom 96 well culture plates precoated overnight with HIV peptide antigens, control proteins, or RPMI-10 only. Spleen cells were added at 5×10^5 cells/well using culture medium having 2× supplements. Cell culture supernatants were harvested from triplicate wells for cytokine analysis three or six days after culture initiation. Immediately after supernatant harvest, cultures were pulsed with ^3H-thymidine for 18-24 hours, and harvested to quantify cell proliferation.
(§2) For cytokine analysis, cell culture supernatants were added to wells coated with BVD6-11B11 (for anti-IL4), or R4-6A2 (for interferon-gamma). After incubation and washing, wells were developed using biotin-labeled BVD6-24G2 (for IL4) or XMG 1.2 (for interferon-gamma). The concentration of cytokines was determined using a standard curve prepared from recombinant murine interferon-gamma or interleukin-4. All cytokine reagents were purchased from Pharmingen (San Diego, Calif.).
(§3) Interferon-gamma secreted into culture by spleen cells stimulated with 25 μg T1SP10MN(A) (−Cys). Spleen cells were harvested from pools of five Balb/c female mice and cultured with the indicated antigenic stimuli (the same as in Example 6) for either three or six days. Interferon-gamma levels were determined by ELISA, and compared to a standard having a known concentration. Blank wells indicate that the assay could not detect Interferon-gamma from those culture conditions. The lower limit of detection sensitivity was 4 picograms/ml.
Cells were cultured for a total of 96 hours. Cell culture supernatants were analyzed for interferon-gamma by ELISA. All values were after subtraction from those determined from supernatants of cells stimulated with 10 μg of lysozyme. Results which were below the limit of detection, after subtraction from stimulation induced with lysozyme are indicated as “bd”. The adjuvants were the same as those in Example 12.

spleen cells [3] = assay type: cell-based, Balb/c mice; settings: Experiment 2, 96 hours culture
Protocol: as §1
Groups of five Balb/c female mice were immunized with 25 μg T1SP10MN(A) (−Cys) and the indicated adjuvants on days 0 and 28. Spleen cells were established in culture on day 56, and harvested for measurement of ^3H-thymidine incorporation 96 hours later. Mice were immunized with 50 ng IL-12, […], 50 μg MPL™ in an aqueous formulation, or as a stable emulsion with 2% SE. Data are presented as the delta cpm values as compared to proliferation values measured from cells grown in culture without stimulation.
Cells were cultured for a total of 96 hours. ^3H-thymidine was added to cultures for the last 18 hours. Data are presented as a proliferation index normalized to cells stimulated in culture with ConA ([mean cpm Antigen/mean cpm ConA]−[mean cpm medium/mean cpm ConA])×100. As a result, cells cultured in medium have a background proliferation of 0. Proliferation values less than cells grown in culture unstimulated are in parentheses.

spleen cells [4] = assay: Secretion of IL-4 by spleen cells (ELISA); assay type: cell-based, Balb/c mice; settings: Experiment 2, 96 hours culture, after subtraction of lysozyme value
Protocol: as §1, §2
as §3, with “Interleukin-4” for “Interferon-gamma”, “(−Cys) was measured.” for “(−Cys).”, “(50 ng IL-12, 10 μg GM-CSF, 50 μg MPL™” for “(the same”, “indicated)” for “in Example 6)”, “22 Units/ml.” for “4 picograms/ml.”
Cells were cultured for a total of 96 hours. Cell culture supernatants were analyzed for IL-4 by ELISA. All values were after subtraction from those determined from supernatants of cells stimulated with 10 μg of an irrelevant protein (lysozyme). Results which were below the limit of detection, after subtraction from stimulation induced with lysozyme are indicated as “bd”. The adjuvants were 40 ng IL-12, 10 μg GM-CSF and 50 μg MPL™.

T1SP10MN(A) (−Cys) [5] = settings: Experiment 3; pooled, n=5 Swiss-Webster; 15 days after secondary immunization
Protocol: The protocols of Experiment 2 were followed, with Swiss-Webster mice used instead of Balb/c mice. Only reciprocal anti-peptide IgG endpoint titers and vaginal lavage endpoint reciprocal endpoint IgG and IgA antibody titers were measured in this experiment.
Aqueous MPL™ was delivered at 50 μg per dose. Recombinant murine IL-12 was delivered at 40 ng/mouse. Recombinant murine GM-CSF was delivered at 10 μg/mouse.

[6] = Experiment 2, pooled serum n=5 Balb/c, 14 days after second immunization
[7] = Experiment 4, individual Balb/c mouse, day 41, 13 days after secondary immunization (days 0 and 28)
[8] = Experiment 4, pooled serum n=5 Balb/c, day 41, 13 days after secondary immunization
[9] = Experiment 5, pooled serum n=5 Balb/c, immunized days 0 and 22, bled day 42
[10] = values in parentheses are less than unstimulated cells

3-O-deacylated monophosphoryl lipid A [MPL ™]
Reciprocal anti-T1SP10MN(A) (−Cys) IgG (GMT) endpoint titer (T1SP10MN(A) (−Cys) [1]; Experiment 2, geometric mean of individual Balb/c mice, 14 days after second immunization): 241,918
Reciprocal anti-T1SP10MN(A) (−Cys) IgG1 (pool) endpoint titer (T1SP10MN(A) (−Cys) [1]; [6]): 134,428
Reciprocal anti-T1SP10MN(A) (−Cys) IgG2a (pool) endpoint titer (T1SP10MN(A) (−Cys) [1]; [6]): 7,127
Reciprocal anti-T1SP10MN(A) (−Cys) IgG (pool) endpoint titer (T1SP10MN(A) (−Cys) [1]; Experiment 2, pooled serum n=5 Balb/c, immunized days 0 and 21, 14 days after second immunization): 219,705
IgG serum titer specific for T1SP10MN(A) (−Cys), Mouse #1 (T1SP10MN(A) (−Cys) [1]; [7]): 50
IgG serum titer specific for T1SP10MN(A) (−Cys), Mouse #2 (T1SP10MN(A) (−Cys) [1]; [7]): 151,846
IgG serum titer specific for T1SP10MN(A) (−Cys), Mouse #3 (T1SP10MN(A) (−Cys) [1]; [7]): 249,054
IgG serum titer specific for T1SP10MN(A) (−Cys), Mouse #4 (T1SP10MN(A) (−Cys) [1]; [7]): 436,378
IgG serum titer specific for T1SP10MN(A) (−Cys), Mouse #5 (T1SP10MN(A) (−Cys) [1]; [7]): 1,245,470
Geometric Mean IgG serum titer specific for T1SP10MN(A) (−Cys), GMT (T1SP10MN(A) (−Cys) [1]; Experiment 4, n=5 Balb/c, day 41, 13 days after secondary immunization): 63,452
Reciprocal anti-T1SP10MN(A) (−Cys) IgG1 endpoint titer (T1SP10MN(A) (−Cys) [1]; [8]): 33,544
Reciprocal anti-T1SP10MN(A) (−Cys) IgG2a endpoint titer (T1SP10MN(A) (−Cys) [1]; [8]): 212
Reciprocal anti-T1SP10MN(A) (−Cys) IgG2b endpoint titer (T1SP10MN(A) (−Cys) [1]; [8]): <100
Reciprocal anti-T1SP10MN(A) (−Cys) IgG GMT (T1SP10MN(A) (−Cys) [1]; Experiment 5, geometric mean n=5 Balb/c, immunized days 0 and 22, bled day 42): 2,032,441
Reciprocal anti-T1SP10MN(A) (−Cys) IgG1 endpoint titer (T1SP10MN(A) (−Cys) [1]; [9]): 1,314,771
Reciprocal anti-T1SP10MN(A) (−Cys) IgG2a endpoint titer (T1SP10MN(A) (−Cys) [1]; [9]): 9,688
Reciprocal anti-T1SP10MN(A) (−Cys) IgG2b endpoint titer (T1SP10MN(A) (−Cys) [1]; [9]): 13,716
Reciprocal anti-T1SP10MN(A) (−Cys) IgG endpoint titer (T1SP10MN(A) (−Cys) [1]; [9]): 2,635,118
Secretion of Interferon-gamma, Con A 5 μg/ml (spleen cells [2]): 203 units/ml
Secretion of Interferon-gamma, HIV Peptide 1.1 μg/ml (spleen cells [2]; bd = below limit of detection): bd
Secretion of Interferon-gamma, HIV Peptide 3.3 μg/ml (spleen cells [2]; bd = below limit of detection): bd
Secretion of Interferon-gamma, HIV Peptide 10 μg/ml (spleen cells [2]; bd = below limit of detection): 5 units/ml
Spleen cell proliferation index normalized to ConA, Con A 5 μg/ml (spleen cells [3]): 99.2
Spleen cell proliferation index normalized to ConA, HIV Peptide 1.1 μg/ml (spleen cells [3]; [10]): 0.5
Spleen cell proliferation index normalized to ConA, HIV Peptide 3.3 μg/ml (spleen cells [3]; [10]): 1.4
Spleen cell proliferation index normalized to ConA, HIV Peptide 10 μg/ml (spleen cells [3]; [10]): 1.0
Spleen cell proliferation index normalized to ConA, Lysozyme 10 μg/ml (spleen cells [3]; [10]): 0.4
Secretion of IL-4, Con A 5 μg/ml (spleen cells [4]): 286 pg/mL
Secretion of IL-4, HIV Peptide 1.1 μg/ml (spleen cells [4]; bd = below limit of detection): 17 pg/mL
Secretion of IL-4, HIV Peptide 3.3 μg/ml (spleen cells [4]; bd = below limit of detection): bd
Secretion of IL-4, HIV Peptide 10 μg/ml (spleen cells [4]; bd = below limit of detection): 5 pg/mL
Vaginal lavage reciprocal anti-HIV peptide IgA endpoint titer (T1SP10MN(A) (−Cys) [5]): <10
Vaginal lavage reciprocal anti-HIV peptide IgG endpoint titer (T1SP10MN(A) (−Cys) [5]): <10
